This note sets out measurements from patent US7879835B2 (Korea Research Institute of Chemical Technology, priority 2004, dated 2011).

For test [1], the system named is osteoclast (TRAP-positive multinuclear cell) formation. Kind of test: Inhibitory effect on osteoclast formation (TRAP staining). Type of test: cell-based, mice. Conditions: compared to control; for inhibition at 0.3 µM / inhibition at 1 µM / inhibition at 3 µM / inhibition at 0.1 µM: Mus musculus, Osteoclast, read-out: Osteoclast formation inhibitory effects (%); for inhibition at 0.3 µM: 0.3 μM (Table 4b); for inhibition at 1 µM: 1 μM (Table 4b); for inhibition at 3 µM: 3 μM (Table 4b); for Osteoclast formation inhibitory effects (%): 8 days culture with M-CSF and RANKL; for inhibition at 0.1 µM: 0.1 μM (Table 4b). How it is done:
The inhibitory activities of the alpha-arylmethoxyacrylate derivatives prepared in the above Examples on the proliferation of osteoclasts were examined as follows.
First, a bone marrow sample containing osteoclast pregenitor cells was isolated as follows. After sacrificing 7 to 9 week-old female mice by cervical dislocation, femur and tibia were excised aseptically while removing soft tissues attached thereto, After cutting both ends of the long bones, 1 ml of an enzyme solution containing 0.1% collagenase (Gibco), 0.05% trypsin and 0.5 mM EDTA (Gibco) was injected into the bone marrow cavity at one end using a syringe with a 26-gauge needle, and the bone marrow was then collected. After stirring the recovered bone marrow for 30 min, the precipitated bone marrow cells were collected, and cultured in α-minimum essential medium (α-MEM) supplemented with 10% FBS for 24 hrs. Then, non-adherent cells, which are osteoclast pregenitors, were aliquoted onto a culture plate at a density of 2×10^5 cells per well, and cultured for 8 days in α-MEM supplemented with 20 ng/ml of macrophage-colony stimulating factor (M-CSF, Peprotech, USA), 30 ng/ml RANKL (Peprotech, USA), and 0.3, 1.0 or 3 μM of the compounds of the Examples. Control cells were cultured at the same condition except not adding the compounds of the Examples.
After cell culture for 8 days, the adherent cells were washed with PBS and fixed with citrate-acetate-formaldehyde for 5 min. The fixed cells were incubated at 37° C. for 1 hr in acetate buffer (pH 5.0) containing naphthol AS-BI phosphate, fast Garnet GBC solution and 7 mM tartrate buffer (pH 5.0) to conduct TRAP (tartrate-resistant acid phosphatase) staining.

For another test, the system named is osteoclasts. Kind of test: Inhibitory effect on resorption activity of osteoclast (resorption pit area on calcium phosphate-coated plate). In kind it is cell-based, mice. Conditions: compared to control. How it is done:
After finishing culture, the plate was washed with distilled water, and 50 μl/well of 5% sodium hypochlorite was added to the plate. The plate was let alone for 5 min, washed again with distilled water to remove the adherent cells, and dried at room temperature. Then, the area of formed resorption pits was calculated by means of Image Pro Plus software (Media Cybernetics Ver. 3.0).

As to `CO/C=C(/C(=O)OC)c1ccccc1COc1ccc(N(C)c2ccccc2)c(F)c1` [compound 417], in test [1], the inhibition at 0.3 µM was 24%, the inhibition at 1 µM came out at 97% and the inhibition at 3 µM worked out at 100%.

In the case of `CO/C=C(/C(=O)OC)c1ccccc1COc1ccc(NCC(C)C)cc1` [compound 361], in test [1], the inhibition at 1 µM was found to be 95% and the inhibition at 3 µM was 100%.

For the compound `CCOc1ccc(OCc2ccccc2/C(=C\OC)C(=O)OC)cc1` [compound 183], the “Osteoclast formation inhibitory effects (%)” value in test [1] (0.3 μM) is on record as 96%; in test [1] (1.0 μM), 100%; in test [1] (3.0 μM), 100%. Besides, the “Reduction (%) of the resorption pit area of osteoclasts” value (“Reduction (%)” for short) with osteoclasts (0.3 uM), in the test on osteoclasts (1 uM) and in the test with osteoclasts (3 uM) was 100% each time.

`CO/C=C(/C(=O)OC)c1ccccc1COc1cccc(N2CCCCC2)n1` [compound 413]: in test [1], the inhibition at 0.3 µM amounted to 11%, the inhibition at 1 µM turned out to be 100% and the inhibition at 3 µM came to 100%.

For `CO/C=C(/C(=O)OC)c1ccccc1COc1cccc(N2CCOCC2)c1` [compound 349], in test [1], the inhibition at 0.1 µM worked out at 2%, the inhibition at 0.3 µM came out at 53%, the inhibition at 1 µM stood at 100% and the inhibition at 3 µM came out at 100%.

Take `CO/C=C(/C(=O)OC)c1ccccc1COc1ccc(N2CCCC2)cn1` [compound 397]: in test [1], the inhibition at 0.3 µM was found to be 22%, the inhibition at 1 µM was determined as 100% and the inhibition at 3 µM was 100%.

In the case of `CO/C=C(/C(=O)OC)c1ccccc1COc1cccc(N2CCCC2)c1` [compound 392], in test [1], the inhibition at 0.3 µM is 2%, the inhibition at 1 µM was determined as 95% and the inhibition at 3 µM worked out at 100%.

For the compound `CCC(C)Oc1ccc(OCc2cc(F)ccc2/C(=C\OC)C(=O)OC)cc1` (stereo not shown) [compound 319], the “Osteoclast formation inhibitory effects (%)” value in test [1] (0.3 μM) is 82%; in test [1] (1.0 μM), 100%; in test [1] (3.0 μM), 100%. Moreover, the figures for the “Reduction (%)” value with osteoclasts (0.3 uM), in the test with osteoclasts (1 uM) and in the test on osteoclasts (3 uM) were 0%, 100% and 100%, respectively.

Take `CO/C=C(/C(=O)OC)c1ccccc1COc1ccc(N2CCCC2)c(F)c1` [compound 418]: in test [1], the inhibition at 0.3 µM was 11%, the inhibition at 1 µM came to 81% and the inhibition at 3 µM is 100%.

With `C=CCCOc1ccc(OCc2ccccc2/C(=C\OC)C(=O)OC)cc1` [compound 178], the “Osteoclast formation inhibitory effects (%)” value is reported as 89% in test [1] (0.3 μM), 100% in test [1] (1.0 μM) and 100% in test [1] (3.0 μM). For the same compound, the “Reduction (%)” value in the test with osteoclasts (0.3 uM) turned out to be 97%; in the test with osteoclasts (1 uM), 100%; in the test on osteoclasts (3 uM), 100%.

Take `CO/C=C(/C(=O)OC)c1ccccc1COc1ccc(NCC(C)C)cc1F` [Compound No. 425, (E)-methyl-2-[2-((4-(N-isobutylamino)-2-fluorophenoxy)methyl)phenyl]-3-methoxyacrylate]: in test [1], the inhibition at 0.1 µM came to 0%, the inhibition at 0.3 µM is 51%, the inhibition at 1 µM is 100% and the inhibition at 3 µM amounted to 100%.

Turning to `C=CCNc1cccc(OCc2ccccc2/C(=C\OC)C(=O)OC)c1` [compound 381], in test [1], the inhibition at 0.3 µM came to 5%, the inhibition at 1 µM was found to be 67% and the inhibition at 3 µM came to 100%.

Turning to `CO/C=C(/C(=O)OC)c1ccccc1COc1ccc(N(C)c2ccccc2)cc1` [compound 400], in test [1], the inhibition at 0.1 µM was 0%, the inhibition at 0.3 µM came out at 53%, the inhibition at 1 µM was determined as 99% and the inhibition at 3 µM was found to be 100%.

Consider `CO/C=C(/C(=O)OC)c1ccccc1COc1cccc(NCCC(C)C)c1` [compound 383], for which, in test [1], the inhibition at 0.3 µM stood at 6%, the inhibition at 1 µM was 94% and the inhibition at 3 µM was determined as 100%.

On to `CO/C=C(/C(=O)OC)c1ccccc1COc1cccc(N2CCOCC2)n1` [compound 348], for which, in test [1], the inhibition at 0.3 µM is 24%, the inhibition at 1 µM was found to be 99% and the inhibition at 3 µM is 100%.

`CO/C=C(/C(=O)OC)c1ccccc1COc1ccc(NCC2CC2)c(F)c1` [compound 372]: in test [1], the inhibition at 1 µM came to 91% and the inhibition at 3 µM stood at 100%.

For the compound `CO/C=C(/C(=O)OC)c1ccccc1COc1cccc(N2CCN(C(=O)OC(C)(C)C)CC2)c1` [compound 406], in test [1], the inhibition at 0.1 µM was found to be 41%, the inhibition at 0.3 µM stood at 100%, the inhibition at 1 µM was determined as 100% and the inhibition at 3 µM was determined as 100%.

For the compound `CO/C=C(/C(=O)OC)c1ccccc1COc1ccc(N(C)CC2CC2)cc1F` [compound 424], in test [1], the inhibition at 0.1 µM came to 0%, the inhibition at 0.3 µM was 92%, the inhibition at 1 µM worked out at 100% and the inhibition at 3 µM was determined as 100%.

Take `CO/C=C(/C(=O)OC)c1ccccc1COc1cccc(N(C)c2ccccc2)n1` [compound 414]: in test [1], the inhibition at 0.3 µM came to 32%, the inhibition at 1 µM is 100% and the inhibition at 3 µM is 100%.

Regarding `C=CCN(CC=C)c1ccc(OCc2ccccc2/C(=C\OC)C(=O)OC)c(F)c1` [compound 421], in test [1], the inhibition at 0.3 µM was 14%, the inhibition at 1 µM was found to be 100% and the inhibition at 3 µM came to 100%.

For `CO/C=C(/C(=O)OC)c1ccccc1COc1ccc(N(CC2CC2)CC2CC2)cc1F` [compound 422], in test [1], the inhibition at 0.1 µM worked out at 11%, the inhibition at 0.3 µM was 98%, the inhibition at 1 µM turned out to be 100% and the inhibition at 3 µM was found to be 100%.

In the case of `CO/C=C(/C(=O)OC)c1ccccc1COc1ccc(NCC2CC2)cc1F` [compound 423], in test [1], the inhibition at 0.1 µM was determined as 0%, the inhibition at 0.3 µM is 51%, the inhibition at 1 µM was determined as 100% and the inhibition at 3 µM amounted to 100%.

In the case of `CO/C=C(/C(=O)OC)c1ccc(Cl)cc1COc1cccc(N(C)c2ccccc2)c1` [compound 390], in test [1], the inhibition at 0.1 µM is 2%, the inhibition at 0.3 µM amounted to 94%, the inhibition at 1 µM was determined as 99% and the inhibition at 3 µM came out at 100%.

`CO/C=C(/C(=O)OC)c1ccccc1COc1ccc(N2CCOCC2)cc1F` [compound 408]: in test [1], the inhibition at 0.1 µM was 0%, the inhibition at 0.3 µM is 52%, the inhibition at 1 µM was 100% and the inhibition at 3 µM was determined as 100%.

With `CO/C=C(/C(=O)OC)c1ccc(Cl)cc1COc1cccc(N2CCCCC2)c1` [compound 387], in test [1], the inhibition at 0.1 µM came to 1%, the inhibition at 0.3 µM was 100%, the inhibition at 1 µM was 100% and the inhibition at 3 µM was 100%.

Regarding `C=CCN(CC=C)c1ccc(OCc2ccccc2/C(=C\OC)C(=O)OC)cc1F` [compound 367], in test [1], the inhibition at 1 µM was 87% and the inhibition at 3 µM was 100%.

For the compound `CO/C=C(/C(=O)OC)c1ccccc1COc1cccc(NC2CCCC2)c1` [compound 380], in test [1], the inhibition at 0.3 µM is 8%, the inhibition at 1 µM amounted to 51% and the inhibition at 3 µM amounted to 100%.
